Assay results reported in ChEMBL document CHEMBL5325441, “Current and emerging therapies for Achondroplasia: The dawn of precision medicine” (2023).
Active and inactive are the calls of the source. No cut-off for these calls is given here.

Experiments:
[1] = system: Bone; experiment: Induction of bone regrowth in achondroplasia FVB mouse model assessed as improvement in dwarfism by measuring tibia size at 203 microg/kg, sc administered as continuous infusion for 35 days; type: functional; conditions: dose 203 µg/kg, time 35 day
[2] = system: Bone; experiment: Induction of bone regrowth in achondroplasia FVB mouse model assessed as improvement in dwarfism by measuring spine size at 203 microg/kg, sc administered as continuous infusion for 35 days; type: functional; conditions: dose 203 µg/kg, time 35 day
[3] = system: Bone; experiment: Induction of bone regrowth in achondroplasia FVB mouse model assessed as improvement in dwarfism by measuring tibia size at 203 microg/kg, sc qd administered for 35 days; type: functional; conditions: dose 203 µg/kg, time 35 day
[4] = Induction of bone regrowth in achondroplasia Cynomolgus monkey model assessed as improvement in dwarfism by measuring ulna size at 203 microg/kg, sc qd administered for 35 days; type: functional, Macaca fascicularis; conditions: dose 203 µg/kg, time 35 day
[5] = Induction of bone regrowth in achondroplasia Cynomolgus monkey model assessed as improvement in dwarfism by measuring tail size at 203 microg/kg, sc qd administered for 35 days; type: functional, Macaca fascicularis; conditions: dose 203 µg/kg, time 35 day
[6] = system: Bone; experiment: Induction of bone regrowth in achondroplasia FVB mouse model assessed as improvement in dwarfism by measuring spine size at 203 microg/kg, sc qd administered for 35 days; type: functional; conditions: dose 203 µg/kg, time 35 day
[7] = system: Bone; experiment: Induction of bone regrowth in achondroplasia FVB mouse model assessed as improvement in dwarfism by measuring femur size at 203 microg/kg, sc administered as continuous infusion for 35 days; type: functional; conditions: dose 203 µg/kg, time 35 day
[8] = system: Bone; experiment: Induction of bone regrowth in achondroplasia FVB mouse model assessed as improvement in dwarfism by measuring femur size at 203 microg/kg, sc qd administered for 35 days; type: functional; conditions: dose 203 µg/kg, time 35 day
[9] = system: Bone; experiment: Induction of bone regrowth in achondroplasia C57BL/6 mouse model expressing FGFR3 Y367C mutant assessed as improvement in dwarfism by measuring tail bone size at 2 mg/kg, sc administered for 15 days; type: functional; conditions: time 15 day
[10] = system: Bone; experiment: Induction of bone regrowth in achondroplasia C57BL/6 mouse model expressing FGFR3 Y367C mutant assessed as improvement in dwarfism by measuring ulna bone size at 2 mg/kg, sc administered for 15 days; type: functional; conditions: time 15 day
[11] = system: Bone; experiment: Induction of bone regrowth in achondroplasia C57BL/6 mouse model expressing FGFR3 Y367C mutant assessed as improvement in dwarfism by measuring tibia bone size at 2 mg/kg, sc administered for 15 days; type: functional; conditions: time 15 day
[12] = system: Bone; experiment: Induction of bone regrowth in achondroplasia C57BL/6 mouse model expressing FGFR3 Y367C mutant assessed as improvement in dwarfism by measuring ulna bone size at 0.5 mg/kg, sc qd administered for 15 days; type: functional; conditions: time 15 day
[13] = system: Bone; experiment: Induction of bone regrowth in achondroplasia C57BL/6 mouse model expressing FGFR3 Y367C mutant assessed as improvement in dwarfism by measuring humerus bone size at 2 mg/kg, sc administered for 15 days; type: functional; conditions: time 15 day
[14] = system: Bone; experiment: Induction of bone regrowth in achondroplasia C57BL/6 mouse model expressing FGFR3 Y367C mutant assessed as improvement in dwarfism by measuring foramen magnum bone size at 2 mg/kg, sc administered for 15 days; type: functional; conditions: time 15 day
[15] = system: Bone; experiment: Induction of bone regrowth in achondroplasia C57BL/6 mouse model expressing FGFR3 Y367C mutant assessed as improvement in dwarfism by measuring tibia bone size at 0.5 mg/kg, sc qd administered for 15 days; type: functional; conditions: time 15 day
[16] = system: Bone; experiment: Induction of bone regrowth in achondroplasia C57BL/6 mouse model expressing FGFR3 Y367C mutant assessed as improvement in dwarfism by measuring L4-L6 spine segment size at 2 mg/kg, sc administered for 15 days; type: functional; conditions: time 15 day
[17] = system: Bone; experiment: Induction of bone regrowth in achondroplasia C57BL/6 mouse model expressing FGFR3 Y367C mutant assessed as improvement in dwarfism by measuring humerus bone size at 0.5 mg/kg, sc qd administered for 15 days; type: functional; conditions: time 15 day
[18] = system: Bone; experiment: Induction of bone regrowth in achondroplasia C57BL/6 mouse model expressing FGFR3 Y367C mutant assessed as improvement in dwarfism by measuring femur bone size at 2 mg/kg, sc administered for 15 days; type: functional; conditions: time 15 day
[19] = system: Bone; experiment: Induction of bone regrowth in achondroplasia C57BL/6 mouse model expressing FGFR3 Y367C mutant assessed as improvement in dwarfism by measuring femur bone size at 0.5 mg/kg, sc qd administered for 15 days; type: functional; conditions: time 15 day
[20] = system: Bone; experiment: Induction of bone regrowth in achondroplasia C57BL/6 mouse model expressing FGFR3 Y367C mutant assessed as improvement in dwarfism by measuring anterior-posterior diameter of the skull size at 2 mg/kg, sc administered for 15 days; type: functional; conditions: time 15 day
[21] = system: Bone; experiment: Induction of bone regrowth in achondroplasia mouse model assessed as improvement in dwarfism by measuring L4-L6 spine segment size at 800 microg/kg, sc qd administered for 21 days; type: functional, organism-based; conditions: dose 800.0 µg/kg, time 21.0 day
[22] = system: Bone; experiment: Induction of bone regrowth in achondroplasia mouse model assessed as improvement in dwarfism by measuring femur bone size at 800 microg/kg, sc qd administered for 21 days; type: functional, organism-based; conditions: dose 800.0 µg/kg, time 21.0 day
[23] = system: Bone; experiment: Induction of bone regrowth in achondroplasia mouse model expressing FGFR3 Y367C mutant assessed as improvement in dwarfism by measuring tail bone size at 240 microg/kg, sc qd administered for 21 days; type: functional, organism-based; conditions: dose 240.0 µg/kg, time 21.0 day
[24] = system: Bone; experiment: Induction of bone regrowth in achondroplasia mouse model assessed as improvement in dwarfism by measuring tibia bone size at 800 microg/kg, sc qd administered for 21 days; type: functional, organism-based; conditions: dose 800.0 µg/kg, time 21.0 day
[25] = system: Bone; experiment: Induction of bone regrowth in achondroplasia mouse model expressing FGFR3 Y367C mutant assessed as improvement in dwarfism by measuring femur bone size at 240 microg/kg, sc qd administered for 21 days; type: functional, organism-based; conditions: dose 240.0 µg/kg, time 21.0 day
[26] = system: Bone; experiment: Induction of bone regrowth in achondroplasia mouse model expressing FGFR3 Y367C mutant assessed as improvement in dwarfism by measuring anterior-posterior diameter of the skull size at 240 microg/kg, sc qd administered for 21 days; type: functional, organism-based; conditions: dose 240.0 µg/kg, time 21.0 day
[27] = system: Bone; experiment: Induction of bone regrowth in achondroplasia mouse model expressing FGFR3 Y367C mutant assessed as improvement in dwarfism by measuring foramen magnum bone size at 240 microg/kg, sc qd administered for 21 days; type: functional, organism-based; conditions: dose 240.0 µg/kg, time 21.0 day
[28] = system: Bone; experiment: Induction of bone regrowth in achondroplasia mouse model expressing FGFR3 Y367C mutant assessed as improvement in dwarfism by measuring tibia bone size at 240 microg/kg, sc qd administered for 21 days; type: functional, organism-based; conditions: dose 240.0 µg/kg, time 21.0 day
[29] = system: Bone; experiment: Induction of bone regrowth in achondroplasia mouse model assessed as improvement in dwarfism by measuring tail bone size at 800 microg/kg, sc qd administered for 21 days; type: functional, organism-based; conditions: dose 800.0 µg/kg, time 21.0 day
[30] = system: Bone; experiment: Induction of bone regrowth in achondroplasia mouse model expressing FGFR3 Y367C mutant assessed as improvement in dwarfism by measuring L4-L6 spine segment size at 240 microg/kg, sc qd administered for 21 days; type: functional, organism-based; conditions: dose 240.0 µg/kg, time 21.0 day
[31] = system: Bone; experiment: Induction of bone regrowth in achondroplasia mouse model assessed as improvement in dwarfism by measuring anterior-posterior diameter of the skull size at 800 microg/kg, sc qd administered for 21 days; type: functional, organism-based; conditions: dose 800.0 µg/kg, time 21.0 day
[32] = system: Bone; experiment: Induction of bone regrowth in achondroplasia mouse model assessed as improvement in dwarfism by measuring foramen magnum bone size at 800 microg/kg, sc qd administered for 21 days; type: functional, organism-based; conditions: dose 800.0 µg/kg, time 21.0 day

For `CC[C@H](C)[C@@H]1NC(=O)[C@H](CCCNC(=N)N)NC(=O)[C@H](CC(=O)O)NC(=O)[C@H](CC(C)C)NC(=O)[C@H](CCCCN)NC(=O)[C@H](CC(C)C)NC(=O)CNC(=O)[C@H](Cc2ccccc2)NC(=O)[C@@H](NC(=O)CNC(=O)[C@H](CCCCN)NC(=O)[C@H](CO)NC(=O)[C@H](CC(C)C)NC(=O)CNC(=O)[C@H](CCCCN)NC(=O)[C@H](CCCCN)NC(=O)[C@H](CC(N)=O)NC(=O)[C@H](C)NC(=O)CNC(=O)[C@H](CCCCN)NC(=O)[C@H](Cc2ccc(O)cc2)NC(=O)[C@H](CCCCN)NC(=O)[C@H](CCCNC(=N)N)NC(=O)[C@H](C)NC(=O)[C@H](CC(N)=O)NC(=O)[C@@H]2CCCN2C(=O)[C@H](Cc2c[nH]cn2)NC(=O)[C@H](CCC(=O)O)NC(=O)[C@H](CCC(N)=O)NC(=O)[C@@H](N)CC(C)C)CSSC[C@@H](C(=O)O)NC(=O)CNC(=O)[C@H](CC(C)C)NC(=O)CNC(=O)[C@H](CO)NC(=O)[C@H](CCSC)NC(=O)[C@H](CO)NC(=O)CNC1=O`, the Activity [1] was 12.2%, the Activity [2] was 25% and the Activity [3] was 4%. It also gave an Activity [4] of 2.7%, an Activity [5] of 9% and an Activity [6] of 11.3%. It also gave an Activity [7] of 7.1% and an Activity [8] of 5.5%.

`CCN1CCN(c2ccc(Nc3cc(N(C)C(=O)Nc4c(Cl)c(OC)cc(OC)c4Cl)ncn3)cc2)CC1` [INFIGRATINIB] gave an Activity [9] of 26.5%, an Activity [10] of 22.3% and an Activity [11] of 32.6%. It also gave an Activity [12] of 11%, an Activity [13] of 11.9% and an Activity [14] of 16.8%. For the same compound, the Activity [15] was 16%, the Activity [16] was 12.1% and the Activity [17] was 7%. The Activity [18] was 20.9%, the Activity [19] was 11% and the Activity [20] was 20.9%.

With VOSORITIDE the Activity [21] was 3.3%, the Activity [22] was 5.2% and the Activity [23] was “inactive”. For the same compound, the Activity [24] was 6.6%, the Activity [25] was 3.4% and the Activity [26] was 2.9%. For the same compound, the Activity [27] was “inactive”, the Activity [28] was 3.7% and the Activity [29] was 8%. For the same compound, the Activity [30] was 2.8%, the Activity [31] was 4.8% and the Activity [32] was “inactive”.
